Measured values reported in patent US5703129A, “5-amino-6-cyclohexyl-4-hydroxy-hexanamide derivatives as inhibitors of β-amyloid protein production” (Bristol-Myers Squibb Company, priority 1996, dated 1997).
Where a name gives a salt, the structure may show the parent alone.

biological target: T1, γ-Secretase (Homo sapiens, UniProt P49768); assay: Inhibition of γ-secretase: ELISA of β-AP made by transfected H4 cells in culture; assay type: cell-based; details: H4 (human neuroglioma) cells expressing β-APP (Swedish variant typically), approximately 16 hours incubation, β-AP in conditioned medium by ELISA
T1 construct: transfected H4 (human neuroglioma) cells stably expressing constructs containing wild-type and mutant forms of β-APP; endogenous in cells; host or cells: H4 human neuroglioma cells, stably transfected with beta-APP (the substrate, not the enzyme)
Description: Production and detection of β-AP made by cells in culture. The use of transfected H4 (human neuroglioma) cells stably expressing constructs containing wild-type and mutant forms of β-APP have been used to identify inhibitors of β-AP production. The Swedish variant of β-APP produces 5-7 fold more β-AP than the wild type and is typically used due to its enhanced signal. […] The capture antibody is typically a mouse monoclonal (IgG1/kβ-APPa). The antibody recognizes the carboxyl terminal epitope of β-AP. The specificity of the capture antibody ensures measurement of β-AP without interference by other secreted β-APP fragments that share amino acid sequence (β-AP1-16) with β-AP. The detecting antibody is typically an affinity purified rabbit polyclonal antibody, specific for the amino terminus of β-AP. In the cell-based assay conditioned medium from H4 cells is tested by ELISA for the quantity of β-AP present. The cell-based assay can be used to identify compounds that inhibit β-AP production. The assay should detect agents that inhibit cleavage at the β-secretase and/or the γ-secretase cleavage site as well as detecting any agent that interferes with the production and/or release of β-AP.
A typical ELISA-based assay requires plating of the transfected cells at a density sufficient for the rapid detection of the secreted β-AP (experimentally predetermined for a particular stable cell population) in a 96-well format. Cells are plated for at least six hours prior to the introduction of the test compound at which time the growth medium is replaced by fresh medium containing the agent to be tested. Test agents may typically consist of synthetic compounds, secondary metabolites from bacterial or fungal fermentation extracts, or extracts from plant or marine samples. All synthetic agents are initially screened at doses ranging from 10-100 μM or in the case of extracts at sufficient dilution to minimize cytotoxicity. Incubation of the cells with the test agent will continue for approximately 16 hours at which time equal aliquots of media from each sample well is removed and placed into a previously prepared ELISA plate for β-AP quantitation. The ELISA is carried out in a manner described by others (Haass, et al., 1992; Hawlow and Lane, 1988) and the β-AP signal quantitated. Results are obtained by analysis of the ELISA plate following development and comparison to the mock treated cell populations and samples in which known amounts of β-AP were added to construct a standard concentration curve. […] If a compound is found to be active, then a dose response experiment is performed to determine the lowest dose of compound necessary to elicit the inhibition of the production of β-AP.

Row | Compound | Activity Rating (Inhibition of γ-Secretase)
1 | CC(C)CNC(=O)[C@@H](C[C@H](O)[C@H](CC1CCCCC1)NC1CCCC(C)C1)C(C)C (relative stereo) [Example 42, [αS(αR*,γR*,δR*)]-γ-Hydroxy-δ-[(3-methylcyclohexyl)amino]-α-(1-methylethyl)-N-(2-methylpropyl)cyclohexanehexanamide] | +++ (+++ < = 10)
2 | CC(C)CNC(=O)[C@@H](C[C@H](O)[C@H](CC1CCCCC1)NC1CCC(C)C1)C(C)C (relative stereo) [Example 43, [αS(αR*,γR*,δR*)]-γ-Hydroxy-δ-[(3-methylcyclopentyl)amino]-α-(1-methylethyl)-N-(2-methylpropyl)cyclohexanehexanamide] | +++ (+++ < = 10)
3 | CCCCNC(=O)[C@@H](C[C@H](O)[C@H](CC1CCCCC1)NC1CCC(C(C)C)CC1)C(C)C (relative stereo) [Example 44, [αS(αR*,γR*,δR*)]-N-butyl-γ-hydroxy-α-(1-methylethyl)-δ-[[4-(1-methylethyl)cyclohexyl]amino]cyclohexanehexanamide hydrochloride] | +++ (+++ < = 10)
4 | CCCCCN[C@@H](CC1CCCCC1)[C@@H](O)C[C@H](C(=O)NCCCC)C(C)C (relative stereo) [Example 45, [αS(αR*,γR*,δR*)]-N-Butyl-γ-hydroxy-α-(1-methylethyl)-δ-(pentylamino)cyclohexanehexanamide hydrochloride] | +++ (+++ < = 10)
5 | CCCCNC(=O)[C@@H](C[C@H](O)[C@H](CC1CCCCC1)NCCCC1CC1)C(C)C (relative stereo) [Example 46, [αS(αR*,γR*,δR*)]-N-Butyl-δ-[(3-cyclopropyl)propyl]amino-γ-hydroxy-α-(1-methylethyl)cyclohexanehexanamide hydrochloride] | +++ (+++ < = 10)
6 | CCCCNC(=O)[C@@H](C[C@H](O)[C@H](CC1CCCCC1)NCCCC1CCCC1)C(C)C (relative stereo) [Example 47, [αS(αR*,γR*,δR*)]-N-Butyl-δ-[(3-cyclopentyl)propyl]amino-γ-hydroxy-α-(1-methylethyl)cyclohexanehexanamide hydrochloride] | +++ (+++ < = 10)
7 | CCCCNC(=O)[C@@H](C[C@H](O)[C@H](CC1CCCCC1)NCCC1CCCCC1)C(C)C (relative stereo) [Example 48, [αS(αR*,γR*,δR*)]-N-Butyl-δ-[(3-cyclohexyl)ethyl]amino-γ-hydroxy-α-(1-methylethyl)cyclohexanehexanamide hydrochloride] | +++ (+++ < = 10)
8 | CC(C)=CCCN[C@@H](CC1CCCCC1)[C@@H](O)C[C@H](C(=O)NCC(C)C)C(C)C (relative stereo) [Example 49, [αS(αR*,γR*,δR*)]-γ-hydroxy-α-(1-methylethyl)-δ-[(4-methyl-3-pentenyl)amino]-N -(2-methylpropyl)cyclohexanehexanamide] | +++ (+++ < = 10)
